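Compound exposure: 48 hours, 5 concentrations, 96-well plates. TGI denotes the concentration required for complete inhibition of growth.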
Columns and labels:
Assay in all cases: NCI-60 cell line screen, 48 h
[1] = test system: UACC-62 melanoma
[2] = test system: OVCAR-5 ovarian
[3] = test system: UO-31 renal
[4] = test system: MDA-MB-435
[5] = test system: T-47D breast
[6] = test system: HS 578T breast
[7] = test system: SNB-19 CNS
[8] = test system: NCI/ADR-RES ovarian
[9] = test system: A549 NSCLC
[10] = test system: MOLT-4 leukemia
[11] = test system: HCC-2998 colon
[12] = test system: UACC-257 melanoma
[13] = test system: CCRF-CEM leukemia
[14] = test system: SK-MEL-5 melanoma
[15] = test system: U251 CNS
[16] = test system: MALME-3M melanoma
[17] = test system: SR leukemia
[18] = test system: IGROV1 ovarian
[19] = test system: HCT-15 colon
[20] = test system: OVCAR-3 ovarian
[21] = test system: CAKI-1 renal
[22] = test system: SN12C renal
[23] = test system: TK-10 renal
[24] = test system: OVCAR-8 ovarian
[25] = test system: SF-539 CNS
[26] = test system: SF-295 CNS
[27] = test system: NCI-H460 lung
[28] = test system: SW-620 colon
[29] = test system: SK-MEL-2 melanoma
[30] = test system: M14 melanoma
[31] = test system: SF-268 CNS
[32] = test system: COLO 205 colon
[33] = test system: HCT-116 colon
[34] = test system: OVCAR-4 ovarian
[35] = test system: RPMI-8226 leukemia
[36] = test system: HOP-92 NSCLC
[37] = test system: HL-60(TB) leukemia
[38] = test system: MDA-MB-231 breast
[39] = test system: NCI-H23 lung
[40] = test system: PC-3 prostate
[41] = test system: MDA-N
[42] = test system: KM12 colon
[43] = test system: SK-OV-3 ovarian
[44] = test system: HT29 colon
[45] = test system: MCF7 breast
[46] = test system: SK-MEL-28 melanoma
[47] = test system: RXF 393 renal
[48] = test system: ACHN renal
[49] = test system: K-562 leukemia
[50] = test system: 786-0 renal
[51] = test system: EKVX NSCLC
[52] = test system: LOX IMVI melanoma
[53] = test system: SNB-75 CNS
[54] = test system: NCI-H226 lung
[55] = test system: DU-145 prostate
[56] = test system: HOP-62 NSCLC
[57] = test system: A498 renal

COc1ccc(/C=C/c2cc(OC)cc(=O)o2)cc1
TGI [1]: > 100 µM
TGI [2]: > 100 µM
TGI [3]: > 100 µM
TGI [4]: > 100 µM
TGI [5]: > 100 µM
TGI [6]: > 100 µM
TGI [7]: > 100 µM
TGI [8]: > 100 µM
TGI [9]: > 100 µM
TGI [10]: > 100 µM
TGI [11]: > 100 µM
TGI [12]: > 100 µM
TGI [13]: > 100 µM
TGI [14]: > 100 µM
TGI [15]: 76.9 µM
TGI [16]: > 100 µM
TGI [17]: > 100 µM
TGI [18]: > 100 µM
TGI [19]: > 100 µM
TGI [20]: > 100 µM
TGI [21]: > 100 µM
TGI [22]: > 100 µM
TGI [23]: > 100 µM
TGI [24]: > 100 µM
TGI [25]: 46.1 µM
TGI [26]: > 100 µM
TGI [27]: > 100 µM
TGI [28]: > 100 µM
TGI [29]: > 100 µM
TGI [30]: > 100 µM
TGI [31]: > 100 µM
TGI [32]: > 100 µM
TGI [33]: > 100 µM
TGI [34]: > 100 µM
TGI [35]: > 100 µM
TGI [36]: > 100 µM
TGI [37]: > 100 µM
TGI [38]: > 100 µM
TGI [39]: > 100 µM
TGI [40]: > 100 µM
TGI [41]: > 100 µM
TGI [42]: > 100 µM
TGI [43]: > 100 µM
TGI [44]: > 100 µM
TGI [45]: > 100 µM
TGI [46]: > 100 µM
TGI [47]: > 100 µM
TGI [48]: > 100 µM
TGI [49]: > 100 µM
TGI [50]: > 100 µM
TGI [51]: > 100 µM
TGI [52]: > 100 µM
TGI [53]: 44.6 µM
TGI [54]: > 100 µM
TGI [55]: > 100 µM
TGI [56]: > 100 µM

CC(C)CC(O)P(=O)(O)O (stereo not given)
TGI [1]: > 100 µM
TGI [2]: > 100 µM
TGI [3]: > 100 µM
TGI [4]: > 100 µM
TGI [5]: > 100 µM
TGI [7]: > 100 µM
TGI [9]: > 100 µM
TGI [10]: > 100 µM
TGI [11]: > 100 µM
TGI [12]: > 100 µM
TGI [14]: > 100 µM
TGI [15]: > 100 µM
TGI [20]: > 100 µM
TGI [21]: > 100 µM
TGI [22]: > 100 µM
TGI [23]: > 100 µM
TGI [57]: > 100 µM
TGI [26]: > 100 µM
TGI [27]: > 100 µM
TGI [28]: > 100 µM
TGI [29]: > 100 µM
TGI [30]: > 100 µM
TGI [32]: > 100 µM
TGI [33]: > 100 µM
TGI [34]: > 100 µM
TGI [35]: > 100 µM
TGI [37]: > 100 µM
TGI [38]: > 100 µM
TGI [40]: > 100 µM
TGI [41]: > 100 µM
TGI [42]: > 100 µM
TGI [43]: > 100 µM
TGI [44]: > 100 µM
TGI [45]: > 100 µM
TGI [46]: > 100 µM
TGI [47]: > 100 µM
TGI [48]: > 100 µM
TGI [49]: > 100 µM
TGI [50]: > 100 µM
TGI [51]: > 100 µM
TGI [53]: > 100 µM
TGI [54]: > 100 µM
TGI [55]: > 100 µM
TGI [56]: > 100 µM

— PubChem BioAssay (NCI)
